Assay results reported in PMC9516332 (Frontiers in Oncology, 2022).
Like-named read-outs stand apart in the source and are kept apart here.

Assays:
[1] = system: AP-1060 (ETV6-NTRK3); experiment: Cell viability assay
[2] = system: 134 cancer cell lines; experiment: Cell viability assay (ATPlite, 72 hours), IC50 on cancer cell line panel

O=C(Nc1cnn2ccc(N3CCC[C@@H]3c3cc(F)ccc3F)nc12)N1CC[C@H](O)C1 [larotrectinib]
potency in AP-1060 compared to entrectinib ([1]; cell viability): around four-fold more potent
IC50 ([1]; read-out: IC50 in cell proliferation assay): 0.009 µM
IC50 ([2]; HEC-6, read-out: IC50 in cell proliferation assay, HEC-6 cell line (EGFR p.A289V)): > 31.6 µM
IC50 ([2]; Homo sapiens, 769-P, read-out: IC50 in cell proliferation assay, cell line 769-P): > 31.6 µM
IC50 ([2]; Homo sapiens, 786-0, read-out: IC50 in cell proliferation assay, cell line 786-O): > 31.6 µM
IC50 ([2]; Homo sapiens, A 172, read-out: IC50 in cell proliferation assay, cell line A-172): > 31.6 µM
IC50 ([2]; Homo sapiens, A204, read-out: IC50 in cell proliferation assay, cell line A-204): > 31.6 µM
IC50 ([2]; Homo sapiens, A498, read-out: IC50 in cell proliferation assay, cell line A-498): > 31.6 µM
IC50 ([2]; Homo sapiens, A549, read-out: IC50 in cell proliferation assay, cell line A-549): > 31.6 µM
IC50 ([2]; Homo sapiens, A704, read-out: IC50 in cell proliferation assay, cell line A-704): > 31.6 µM
IC50 ([2]; Homo sapiens, A-375, read-out: IC50 in cell proliferation assay, cell line A-375 (BRAF p.V600E)): > 31.6 µM
IC50 ([2]; Homo sapiens, A-427, read-out: IC50 in cell proliferation assay, cell line A-427): > 31.6 µM
IC50 ([2]; Homo sapiens, ACHN, read-out: IC50 in cell proliferation assay, cell line ACHN): > 31.6 µM
IC50 ([2]; Homo sapiens, AN3-CA, read-out: IC50 in cell proliferation assay, cell line AN3-CA (FGFR2 p.N549K)): > 31.6 µM
IC50 ([2]; Homo sapiens, ASPC1, read-out: IC50 in cell proliferation assay, cell line AsPC-1): > 31.6 µM
IC50 ([2]; Homo sapiens, AU565, read-out: IC50 in cell proliferation assay, cell line AU565 (ERBB2 amplification)): > 31.6 µM
IC50 ([2]; Homo sapiens, BT-20, read-out: IC50 in cell proliferation assay, cell line BT-20): > 31.6 µM
IC50 ([2]; Homo sapiens, BT-474, read-out: IC50 in cell proliferation assay, cell line BT-474 (ERBB2 amplification)): > 31.6 µM
IC50 ([2]; Homo sapiens, BT-549, read-out: IC50 in cell proliferation assay, cell line BT-549): > 31.6 µM
IC50 ([2]; Homo sapiens, BXPC-3, read-out: IC50 in cell proliferation assay, cell line BxPC-3): > 31.6 µM
IC50 ([2]; Homo sapiens, C-33-A, read-out: IC50 in cell proliferation assay, cell line C-33 A): > 31.6 µM
IC50 ([2]; Homo sapiens, CAL-27, read-out: IC50 in cell proliferation assay, cell line CAL-27): > 31.6 µM
IC50 ([2]; Homo sapiens, CCF-STTG1, read-out: IC50 in cell proliferation assay, cell line CCF-STTG1): > 31.6 µM
IC50 ([2]; Homo sapiens, CCRF-CEM, read-out: IC50 in cell proliferation assay, cell line CCRF-CEM): > 31.6 µM
IC50 ([2]; Homo sapiens, COLO 205, read-out: IC50 in cell proliferation assay, cell line COLO 205 (BRAF p.V600E)): > 31.6 µM
IC50 ([2]; Homo sapiens, COLO-829, read-out: IC50 in cell proliferation assay, cell line COLO 829 (BRAF p.V600E)): > 31.6 µM
IC50 ([2]; Homo sapiens, DLD-1, read-out: IC50 in cell proliferation assay, cell line DLD-1): > 31.6 µM
IC50 ([2]; Homo sapiens, DU-4475, read-out: IC50 in cell proliferation assay, cell line DU4475 (BRAF p.V600E)): > 31.6 µM
IC50 ([2]; Homo sapiens, Daoy, read-out: IC50 in cell proliferation assay, cell line Daoy): > 31.6 µM
IC50 ([2]; Homo sapiens, DoTc2-4510, read-out: IC50 in cell proliferation assay, cell line DoTc2 4510): > 31.6 µM
IC50 ([2]; Homo sapiens, EOL1, read-out: IC50 in cell proliferation assay, cell line EoL-1 (FIP1L1-PDGFRA)): > 31.6 µM
IC50 ([2]; Homo sapiens, FaDu, read-out: IC50 in cell proliferation assay, cell line FaDu): > 31.6 µM
IC50 ([2]; Homo sapiens, G-361, read-out: IC50 in cell proliferation assay, cell line G-361 (BRAF p.V600E)): > 31.6 µM
IC50 ([2]; Homo sapiens, HCC827, read-out: IC50 in cell proliferation assay, cell line HCC827 (EGFR exon19del)): > 31.6 µM
IC50 ([2]; Homo sapiens, HCC4006, read-out: IC50 in cell proliferation assay, cell line HCC4006 (EGFR exon19del)): > 31.6 µM
IC50 ([2]; Homo sapiens, HCT-15, read-out: IC50 in cell proliferation assay, cell line HCT 15): > 31.6 µM
IC50 ([2]; Homo sapiens, HCT-116, read-out: IC50 in cell proliferation assay, cell line HCT 116): > 31.6 µM
IC50 ([2]; Homo sapiens, HEC-1, read-out: IC50 in cell proliferation assay, HEC-1 cell line): > 31.6 µM
IC50 ([2]; Homo sapiens, HEC-1B, read-out: IC50 in cell proliferation assay, HEC-1-B cell line (EGFR p.A864V)): > 31.6 µM
IC50 ([2]; Homo sapiens, HL-60, read-out: IC50 in cell proliferation assay, HL-60 cell line): > 31.6 µM
IC50 ([2]; Homo sapiens, HT, read-out: IC50 in cell proliferation assay, HT cell line): > 31.6 µM
IC50 ([2]; Homo sapiens, HT-1080, read-out: IC50 in cell proliferation assay, HT-1080 cell line): > 31.6 µM
IC50 ([2]; Homo sapiens, Hs746T, read-out: IC50 in cell proliferation assay, Hs 746.T cell line (MET exon14skip + amplification)): > 31.6 µM
IC50 ([2]; Homo sapiens, Hs-578T, read-out: IC50 in cell proliferation assay, Hs 578T cell line): > 31.6 µM
IC50 ([2]; Homo sapiens, HuTu80, read-out: IC50 in cell proliferation assay, HuTu 80 cell line): > 31.6 µM
IC50 ([2]; Homo sapiens, J82, read-out: IC50 in cell proliferation assay, J82 cell line): > 31.6 µM
IC50 ([2]; Homo sapiens, Jurkat E6.1, read-out: IC50 in cell proliferation assay, Jurkat E6.1 cell line): > 31.6 µM
IC50 ([2]; Homo sapiens, K562, read-out: IC50 in cell proliferation assay, K-562 cell line): > 31.6 µM
IC50 ([2]; Homo sapiens, KATO III, read-out: IC50 in cell proliferation assay, KATO III cell line (FGFR2 amplification)): > 31.6 µM
IC50 ([2]; Homo sapiens, KG-1, read-out: IC50 in cell proliferation assay, KG-1 cell line (FGFR1OP2-FGFR1)): > 31.6 µM
IC50 ([2]; Homo sapiens, KLE, read-out: IC50 in cell proliferation assay, KLE cell line): > 31.6 µM
IC50 ([2]; Homo sapiens, KMS-11, read-out: IC50 in cell proliferation assay, KMS-11 cell line (FGFR3 p.Y373C)): > 31.6 µM
IC50 ([2]; Homo sapiens, KU812, read-out: IC50 in cell proliferation assay, Ku812 cell line): > 31.6 µM
IC50 ([2]; Homo sapiens, Kasumi 1, read-out: IC50 in cell proliferation assay, Kasumi-1 cell line (KIT p.N822K)): > 31.6 µM
IC50 ([2]; Homo sapiens, LC-2-ad, read-out: IC50 in cell proliferation assay, LC-2/ad cell line (CCDC6-RET)): > 31.6 µM
IC50 ([2]; Homo sapiens, LNCaP-Clone-FGC, read-out: IC50 in cell proliferation assay, LNCaP clone FGC cell line): > 31.6 µM
IC50 ([2]; Homo sapiens, LS174T, read-out: IC50 in cell proliferation assay, LS174T cell line): > 31.6 µM
IC50 ([2]; Homo sapiens, LS-411N, read-out: IC50 in cell proliferation assay, LS411N cell line (BRAF p.V600E)): > 31.6 µM
IC50 ([2]; Homo sapiens, LoVo, read-out: IC50 in cell proliferation assay, LoVo cell line): > 31.6 µM
IC50 ([2]; Homo sapiens, MCF7, read-out: IC50 in cell proliferation assay, MCF-7 cell line): > 31.6 µM
IC50 ([2]; Homo sapiens, MDA-MB-231, read-out: IC50 in cell proliferation assay, MDA-MB-231 cell line): > 31.6 µM
IC50 ([2]; Homo sapiens, MDA-MB-453, read-out: IC50 in cell proliferation assay, MDA-MB-453 cell line): > 31.6 µM
IC50 ([2]; Homo sapiens, MDA-MB-468, read-out: IC50 in cell proliferation assay, MDA-MB-468 cell line): > 31.6 µM
IC50 ([2]; Homo sapiens, MG-63, read-out: IC50 in cell proliferation assay, MG-63 cell line): > 31.6 µM
IC50 ([2]; Homo sapiens, MIA PaCa-2, read-out: IC50 in cell proliferation assay, MIA PaCa-2 cell line): > 31.6 µM
IC50 ([2]; Homo sapiens, MKN-45, read-out: IC50 in cell proliferation assay, MKN45 cell line (MET amplification)): > 31.6 µM
IC50 ([2]; Homo sapiens, MOLM-13, read-out: IC50 in cell proliferation assay, MOLM-13 cell line (FLT3 ITD)): 12.6 µM
IC50 ([2]; Homo sapiens, MOLT-4, read-out: IC50 in cell proliferation assay, MOLT-4 cell line): > 31.6 µM
